The record followed here is ChEMBL document CHEMBL5050827, “ATF6 inhibitors and uses thereof” (2020).

Some results are limits rather than exact numbers.

The nature of series [1]: Inhibition of ATF6 activity in human U2OS cells in presence of ER stress inducer thapsigargin (Tg) measured by TRE-luciferase reporter assay. The format is cell-based.
The subject of a further series is U2OS. Put plainly: Inhibition of ATF6 activity in human U2OS cells at 1 uM in presence of ER stress inducer thapsigargin (Tg) measured by TRE-luciferase reporter assay relative to control. The format is cell-based. (In general: A reporter such as luciferase makes a cellular process visible.)
Series [2] can be described thus: Clearance in Balb/C mouse plasma at 10 mg/kg, po by LC-MS analysis. The format is ADME, organism-based.
Series [3] is described as follows: AUC (last) in Balb/C mouse plasma at 10 mg/kg, po by LC-MS analysis. The series is classed as ADME, organism-based. The arrangement: time 0 - last, route oral, dose 10 mg/kg.
Series [4] in a line: Half-life in Balb/C mouse plasma at 10 mg/kg, po by LC-MS analysis. The format is ADME, organism-based.
Series [5] is described as follows: AUC (infinity) in Balb/C mouse plasma at 10 mg/kg, po by LC-MS analysis. The format is ADME, organism-based. The arrangement: route oral, time infinity, dose 10 mg/kg.

Consider `Cc1c(NC(=O)c2cc(-c3ccccn3)on2)cnn1[C@H](C)c1ccc(C(F)(F)F)cc1C(F)(F)F`, for which the IC50 (in general, the concentration that gives 50% inhibition) in series [1] is “in the range around 1000 nM”. Besides, the inhibition – broadly, the drop in the measured response relative to a control, in per cent – in the series on U2OS came to 25%.
For `C[C@@H](c1ccc(C(F)(F)F)cc1C(F)(F)F)n1cc(NC(=O)c2nnc(-c3ccccn3)s2)cn1`, the IC50 entry in series [1] was “in the range around 1000 nM”. Besides, in the series on U2OS, the inhibition was under 25%.
For `O=C(Nc1cnn(C2CCc3ccccc32)c1)c1nnc(-c2ccco2)o1` (stereo not given), in that order: over 10000 nM and under 25%.
`CC(c1ccc(C(F)(F)F)cc1C(F)(F)F)n1cc(NC(=O)c2cc(-c3ccccn3)nn2C)cn1` (stereo not given): in the series with U2OS, the inhibition is 25%.
On to `C[C@H](c1ccc(C(F)(F)F)cc1C(F)(F)F)n1cc(NC(=O)c2nnc(-c3ccccn3)s2)cn1`, for which the CL/F (as a rule, clearance divided by bioavailability, as obtained after extravascular dosing) in series [2] is 2.68 mL/min/kg.
Consider `C[C@H](c1ccc(C(F)(F)F)cc1C(F)(F)F)n1cc(NC(=O)c2cc(-c3ccccn3)on2)cn1`, for which the inhibition in the series with U2OS is under 25%.
As for `O=C(Nc1cnn(Cc2ccc(C(F)(F)F)cc2C(F)(F)F)c1)c1cc(-c2cccs2)on1`, the inhibition in the series with U2OS amounted to 25%.
Turning to `O=C(Nc1cnn(Cc2ccc(C(F)(F)F)cc2)c1)c1cc(-c2ccco2)on1`, in series [1], the IC50 was over 10000 nM. The inhibition in the series on U2OS is under 25%.
Regarding `O=C(Nc1cnn(Cc2ccc(C(F)(F)F)cc2C(F)(F)F)c1)c1cc(-c2ccncc2)on1`, the IC50 entry in series [1] was “in the range around 1000 nM”.
Still for that read-out and setting: the value for `O=C(Nc1cnn(Cc2ccc(C(F)(F)F)cc2C(F)(F)F)c1)c1cnc(-c2ccccn2)s1` was “in the range around 1000 nM”.
As for `Cc1nn([C@H](C)c2ccc(C(F)(F)F)cc2C(F)(F)F)cc1NC(=O)c1cc(-c2ccccn2)on1`, in the series on U2OS, the inhibition turned out to be 25%.
As for `Cc1ccc(-c2cc(C(=O)Nc3cnn(Cc4ccc(C(F)(F)F)cc4C(F)(F)F)c3)no2)o1`, the IC50 result in series [1] is “in the range around 1000 nM”.
Consider `C[C@H](c1ccc(C(F)(F)F)cc1C(F)(F)F)n1cc(NC(=O)c2cn(-c3ccccn3)nn2)cn1`, for which, in the series with U2OS, the inhibition stood at 25%.
The same measure, in the same setting: the value for `C[C@@H](c1ccc(C(F)(F)F)cc1C(F)(F)F)n1cc(NC(=O)c2nnc(-c3ccco3)s2)cn1` was 25%.
As to `C[C@H](c1ccc(F)cc1C(F)(F)F)n1cc(NC(=O)c2cc(-c3ccccn3)on2)cn1`, in series [1], the IC50 result was “in the range around 1000 nM”. Further, the inhibition in the series on U2OS worked out at 25%.
In the case of `C[C@H](c1ccc(C(F)(F)F)cc1C(F)(F)F)n1cc(NC(=O)c2cc(-c3cnccn3)on2)cn1`, the CL/F in series [2] was 1.56 mL/min/kg.
Still for that read-out and setting: in the case of `C[C@H](c1ccc(C(F)(F)F)cc1C(F)(F)F)n1cc(NC(=O)c2cc(-c3ccccn3)no2)cn1` it was 3.68 mL/min/kg.
Consider `Cc1cccc(-c2cc(C(=O)Nc3cnn(Cc4ccc(C(F)(F)F)cc4C(F)(F)F)c3)no2)n1`, for which the inhibition in the series on U2OS worked out at 25%.
In series [2], `C[C@@H](c1ccc(C(F)(F)F)cc1C(F)(F)F)n1cc(NC(=O)c2cc(-c3ccco3)on2)cn1` had a CL/F of 267 mL/min/kg.
On to `C[C@H](c1ccc(C(F)(F)F)cc1C(F)(F)F)n1cc(NC(=O)c2nnc(-c3ccncn3)s2)cn1`, for which the inhibition in the series on U2OS was 25%.
With `C[C@H](c1ccc(C(F)(F)F)cc1C(F)(F)F)n1cc(NC(=O)c2cnc(-c3ccccn3)s2)cn1`, the IC50 entry in series [1] was “in the range around 1000 nM”. Also, the inhibition in the series with U2OS is 25%.
Turning to `C[C@H](c1ccc(C(F)(F)F)cc1C(F)(F)F)n1cc(NC(=O)c2cc(-c3ccco3)on2)cn1`, the inhibition in the series on U2OS is under 25%.
`CC(c1ccc(C(F)(F)F)cc1C(F)(F)F)n1cc(NC(=O)c2cc(-c3cccs3)on2)cn1` (stereo not given): the 50% inhibitory concentration (IC50) entry in series [1] is “in the range around 1000 nM”.
For `Cc1cccc(-c2cc(C(=O)Nc3cnn([C@H](C)c4ccc(C(F)(F)F)cc4C(F)(F)F)c3)no2)n1`, the inhibition in the series with U2OS stood at 25%.
As to `C[C@@H](c1ccc(C(F)(F)F)cc1C(F)(F)F)n1cc(NC(=O)c2cnc(-c3ccccn3)o2)cn1`, the concentration for half-maximal inhibition (IC50) in series [1] was over 10000 nM. Besides, in the series with U2OS, the inhibition is under 25%.
In the same order, the values of `O=C(Nc1cnn(Cc2ccccc2)c1)c1cc(-c2ccco2)on1` are over 10000 nM and under 25%.
For `Cc1c(NC(=O)c2cc(-c3ccccn3)on2)cnn1Cc1ccc(C(F)(F)F)cc1C(F)(F)F`, in that order: “in the range around 1000 nM” and 25%.
In series [2], `O=C(Nc1cnn(Cc2ccc(C(F)(F)F)cc2C(F)(F)F)c1)c1cc(-c2ccccn2)on1` had a CL/F of 16.2 mL/min/kg.
In the case of `O=C(Nc1cnn(Cc2ccc(C(F)(F)F)cc2C(F)(F)F)c1)c1cc(-c2ccco2)on1`, the IC50 in series [1] is under 1000 nM. For the same compound, in series [3], the AUC(0-t) (usually exposure summed from dosing to a finite time, without extrapolation to infinity) came to 39.1 ng·h/mL. The CL/F in series [2] is 3850 mL/min/kg. For the same compound, the half-life (usually how long it takes for the measured level to halve) in series [4] was 2.49 h. The inhibition in the series on U2OS was over 50%. In series [5], the AUC(0-inf) (in general, the area under the concentration-time curve extrapolated to infinity) was determined as 43.3 ng·h/mL.
With `C[C@@H](c1ccc(C(F)(F)F)cc1C(F)(F)F)n1cc(NC(=O)c2coc(-c3ccccn3)n2)cn1`, in series [1], the IC50 is over 10000 nM. The inhibition in the series on U2OS is under 25%.
On to `CC(c1ccc(C(F)(F)F)cc1C(F)(F)F)n1cc(NC(=O)c2cnc(-c3ccccn3)s2)cn1` (stereo not given), for which the IC50 result in series [1] is “in the range around 1000 nM”.
`C[C@@H](c1ccc(C(F)(F)F)cc1C(F)(F)F)n1cc(NC(=O)c2cc(-c3ccccn3)on2)cn1` had a CL/F in series [2] of 5.17 mL/min/kg. For the same compound, the inhibition in the series with U2OS is over 50%.
Consider `CN(C(=O)c1cc(-c2ccccn2)on1)c1cnn(Cc2ccc(C(F)(F)F)cc2C(F)(F)F)c1`, for which the IC50 entry in series [1] is “in the range around 1000 nM”. In addition, in the series with U2OS, the inhibition is 25%.
